This note sets out measurements from patent US20190192502A1, “Modulation of Transcription Initiation Factor TFIID Subunit 1 (TAF1) for Treating Leukemia” (UNIVERSITY OF MIAMI, priority 2017, published 2019).

One assay deals with CD34+ cells. The experiment in a line: Cell growth, CellTiter-Glow luminescent cell viability assay, CD34+ cells. In kind it is cell-based, human. The settings on record: 3 days of treatment. The method, then: FIGS. 8A-8F. The effect of TAF1 bromodomain inhibitor Bay-364 on the growth of Kasumi-1 cells, K562 cells and CD34+ cells. (FIGS. 8A-8C) The growth of Kasumi-1 cells, CD34+ cells and K562 cells in the presence or absence of different concentrations of bromodomain inhibitors Bay-364, Bay-299 or JQ-1. The cell growth was measured by CellTiter-Glow luminescent cell viability assay after 3 days of treatment with the inhibitors. Each treatment was in triplicate and shown as average±SD. (FIG. 8D) IC50s (μM) of inhibitors on Kasumi-1, CD34+ and K562 cellsKasumi-1 cells, CD34+ cells and K562 cells were treated with different concentrations of Bay-364, Bay-299 and JQ-1 for three days and cell growth was measured by CellTiter-Glow luminescent cell viability assay. Each treatment was in triplicate and IC50s were calculated using GraphPad Prism. […] RNA was extracted from Kasumi-1 cells treated with or without Bay-364 for 72 hours. mRNA levels of individual genes were standardized by 18S rRNA level. […]
Human cord blood was purchased from the New York Blood Center. […] Seven days after the initial plating, colonies were counted and then all the cells were collected for replating weekly with a density of 3000 cells per well for continuous 4 weeks. Cobblestone area forming cell assays (CAFC) were performed as described previously 25, the numbers of total cobblestone area were counted after 5 weeks. […]

The next assay deals with Kasumi-1 cells. The assay is described as follows: Cell growth, CellTiter-Glow luminescent cell viability assay, Kasumi-1 cells. The settings on record: for growth of Kasumi-1 cells: 3 days of treatment. In kind it is cell-based, human. Here is the method: (§1) FIGS. 8A-8F. The effect of TAF1 bromodomain inhibitor Bay-364 on the growth of Kasumi-1 cells, K562 cells and CD34+ cells. (FIGS. 8A-8C) The growth of Kasumi-1 cells, CD34+ cells and K562 cells in the presence or absence of different concentrations of bromodomain inhibitors Bay-364, Bay-299 or JQ-1. The cell growth was measured by CellTiter-Glow luminescent cell viability assay after 3 days of treatment with the inhibitors. Each treatment was in triplicate and shown as average±SD. (FIG. 8D) IC50s (μM) of inhibitors on Kasumi-1, CD34+ and K562 cellsKasumi-1 cells, CD34+ cells and K562 cells were treated with different concentrations of Bay-364, Bay-299 and JQ-1 for three days and cell growth was measured by CellTiter-Glow luminescent cell viability assay. Each treatment was in triplicate and IC50s were calculated using GraphPad Prism. […] RNA was extracted from Kasumi-1 cells treated with or without Bay-364 for 72 hours. mRNA levels of individual genes were standardized by 18S rRNA level. (FIG. 8F) TAF1 working model: Under normal conditions, the acetylation of K43 on AE by p300 is recognized by the bromodomains of TAF1 and TAF1 enhances the binding of AE to chromatin. Then transcription is activated. In absence of TAF1, the binding affinity of AE with chromatin is abrogated, and transcription is blocked.
Kasumi-1 cells were grown in RPMI 1640 supplemented with 20% fetal bovine serum, SKNO-1 cells were grown in RPMI 1640 with 10% fetal bovine serum and 10 ng/ml GM-CSF. K562 cells were grown in IMDM with 10% fetal bovine serum.
Bay-364 (also Bay-299N) is a commercially available small molecule inhibitor of the second bromodomain in TAF1. Given the essential role of TAF1 in the proliferation of AE expressing cells, the effect of Bay-364 on the growth of Kasumi-1, K562 and CD34+ cells was examined. […] JQ-1 inhibits the bromodomains of several BET family proteins including BRD2, BRD3, BRD4 and BRDT.

The subject of the next assay is K562 cells. The assay is described as follows: Cell growth, CellTiter-Glow luminescent cell viability assay, K562 cells. The assay is classed as cell-based. The settings on record: 3 days of treatment. Here is the method:
as §1, with “blocked. […]” for “blocked.”
A general note: In ATP-based viability assays light output follows the ATP content of the culture.

The test system of assay [1] is AE upregulated genes (ID1, CARM1, MYC). The experiment in a line: Realtime PCR of AE upregulated genes in Kasumi-1 cells. The assay is classed as cell-based, human. The following applies: 72 hours, standardized by 18S rRNA level. The method, then:
as §1, with “In absence of TAF1, the binding affinity of AE with chromatin is abrogated, and transcription is blocked.” left out
RNA was extracted using RNeasy mini kit (Qiagen) and cDNA was generated by QuantiTect Rev. […]

Turning to `Cc1cc2c(cc1N1C(=O)c3cccc4c(CCCO)ccc(c34)C1=O)n(C)c(=O)n2C` [Bay-299, 6-(3-Hydroxypropyl)-2-(1,3,6-trimethyl-2-oxo-2,3-dihydro-1Hbenzimidazol-5-yl)-1H-benzo[de]isoquinoline-1,3(2H)-dione], the “growth of CD34+ cells” value in the assay on CD34+ cells is reported as “suppresses the growth”. For the same compound, in the assay with Kasumi-1 cells, the “growth of Kasumi-1 cells” value was “suppresses the growth”. In addition, the “growth of K562 cells” value in the assay with K562 cells is on record as “suppresses the growth”.

For the compound `Cn1c(=O)[nH]c2cc(N3C(=O)c4cccc5c(CCCO)ccc(c45)C3=O)ccc21` [Bay-364], the “growth of CD34+ cells” value in the assay with CD34+ cells is “much less toxicity on HSPCs”. Besides, in the assay on Kasumi-1 cells, the “growth of Kasumi-1 cells” value is on record as “more sensitive to Bay-364 treatment than CD34+ cells”. In assay [1], the “mRNA levels of ID1, CARM1, MYC” value is listed as “repressed the expression of these genes”. Moreover, the “growth of K562 cells” value with K562 cells is recorded as “little influence on the growth”.

Turning to `Cc1sc2c(c1C)C(c1ccc(Cl)cc1)=N[C@@H](CC(=O)OC(C)(C)C)c1nnc(C)n1-2` [JQ-1], in the assay with Kasumi-1 cells, the “growth of Kasumi-1 cells” value is “more potent than Bay-364”. The “IC50s on Kasumi-1 cells compared with CD34+ cells” value in the assay on Kasumi-1 cells (three days, GraphPad Prism) is “quite similar”.
